Measured values taken from patent US9278996B2, “Dolastatin-10 derivative, method of producing the same and anticancer drug composition containing the same” (CELLTRION, INC., priority 2012, dated 2016).
Read-outs that look alike come from different tables or passages of the source.

Key:
Assay type in all cases: cell-based
[1] = tested on: breast cancer (BT-474); assay: Anticancer activity assay (WST-8 cell growth), BT-474; details: Homo sapiens, read-out: IC50 (nM) BT-474
Protocol: (§1) The compounds of the present invention were assayed for inhibitory activity against 7 cancer cell lines as breast cancer (BT-474), human epithelial cancer (A-431), non-small cell lung cancer (NCI-H460), colon cancer (HT-29), colon cancer (SW-620), breast cancer (MDA-MB-231) and breast cancer (MCF-7).
(§2) Briefly, a suspension of each cancer cell line was serially diluted, and plated at a density of 2˜3×10^3 cells/well into 96-well microplates, followed by incubation at 37° C. for 4 day in a 5% CO2 atmosphere. Cell growth in a monolayer was measured using WST-8 reagemt (Dojindo, Japan).
(§3) IC50 values of the compounds against the cancer cell lines were calculated as compound concentrations at which the cells were grown by 50% OD of the control.

[2] = tested on: human epithelial cancer (A-431); assay: Anticancer activity assay (WST-8 cell growth), A-431
Protocol: as §1, §2, §3

[3] = tested on: colon cancer (SW-620); assay: Anticancer activity assay (WST-8 cell growth), SW-620; details: read-out: IC50 (nM) SW-620
Protocol: as §1, §2, §3

[4] = tested on: non-small cell lung cancer (NCI-H460); assay: Anticancer activity assay (WST-8 cell growth), NCI-H460; details: read-out: IC50 (nM) NCI-H460
Protocol: as §1, §2, §3

[5] = tested on: breast cancer (MCF-7); assay: Anticancer activity assay (WST-8 cell growth), MCF-7; details: read-out: IC50 (nM) MCF-7
Protocol: as §1, §2, §3

[6] = tested on: colon cancer (HT-29); assay: Anticancer activity assay (WST-8 cell growth), HT-29; details: read-out: IC50 (nM) HT-29
Protocol: as §1, §2, §3

[7] = tested on: breast cancer (MDA-MB-231); assay: Anticancer activity assay (WST-8 cell growth), MDA-MB-231; details: read-out: IC50 (nM) MDA-MB-231
Protocol: as §1, §2, §3

[8] = A-431, 96 h, read-out: IC50 (nM) A-431

CC[C@H](C)[C@@H]([C@@H](CC(=O)N1C[C@H](OC)C[C@H]1[C@H](OC)[C@@H](C)C(=O)NCC(=O)c1ccc(OC)cc1)OC)N(C)C(=O)[C@@H](NC(=O)[C@@H](NC)C(C)C)C(C)C (stereo in doubt) [Compound I-5, (2S)—N-((3R,4S)-3-methoxy-1-((2R,4R)-4-methoxy-2-((1R,2R)-1-methoxy-3-((2-(4-methoxyphenyl)-2-oxoethyl)amino)-2-methyl-3-oxopropyl)pyrrolidin-1-yl)-5-methyl-1-oxoheptan-4-yl)-N,3-dimethyl-2-((S)-3-methyl-2-(methylamino)butaneamido)butanamide] was tested, and the IC50 ([1]; BT-474, 96 h) was 0.53 nM and the IC50 [2, 8] was 61.2 nM.
Work on CC[C@H](C)[C@@H]([C@@H](CC(=O)N1C[C@H](OC)C[C@@H]1[C@H](OC)[C@@H](C)C(=O)NCCc1ccc(F)cc1)OC)N(C)C(=O)[C@@H](NC(=O)[C@@H](NC)C(C)C)C(C)C [Compound I-3, (S)—N-((3R,4S,5S)-1-((2R,4R)-2-((1R,2R)-3-((4-fluorophenethyl)amino)-1-methoxy-2-methyl-3-oxopropyl)-4-methoxypyrrolidin-1-yl)-3-methoxy-5-methyl-1-oxoheptan-4-yl)-N,3-dimethyl-2-((S)-3-methyl-2-(methylamino)butaneamido)butanamide] yielded an IC50 ([1]; BT-474, 96 h) of 1.1 nM and an IC50 [2, 8] of 37.9 nM.
For CC[C@H](C)[C@@H]([C@@H](CC(=O)N1C[C@H](OC)CC1[C@H](OC)[C@@H](C)C(=O)NCCc1cc(F)c(Cl)cc1Cl)OC)N(C)C(=O)[C@@H](NC(=O)[C@@H](NC)C(C)C)C(C)C (some centres unmarked) [Compound I-4], the IC50 ([1]; BT-474, 96 h) was 2.44 nM and the IC50 [2, 8] was 21.1 nM.
Compound CC[C@H](C)[C@@H]([C@@H](CC(=O)N1C[C@H](O)C[C@@H]1[C@H](OC)[C@@H](C)C(=O)NCCc1ccccc1)OC)N(C)C(=O)[C@@H](NC(=O)[C@H](C(C)C)N(C)C)C(C)C [Compound I-8, (S)-2-((S)-2-(dimethylamino)-3-methylbutaneamido)-N-((3R,4S,5S)-1-((2R,4R)-4-hydroxy-2-((1R,2R)-1-methoxy-2-methyl-3-oxo-3-(phenethylamino)propyl)pyrrolidin-1-yl)-3-methoxy-5-methyl-1-oxoheptan-4-yl)-N,3-dimethylbutanamide] has an IC50 ([3]; Homo sapiens, SW-620, 96 h) of 2.9 nM, an IC50 ([4]; Homo sapiens, NCI-H460, 96 h) of 1.5 nM and an IC50 ([1]; BT-474, 96 h) of 0.68 nM. The IC50 ([5]; Homo sapiens, MCF7, 96 h) was 27 nM.
Compound CC[C@H](C)[C@@H]([C@@H](CC(=O)N1CC(=O)C[C@@H]1[C@H](OC)[C@@H](C)C(=O)NCCc1ccccc1)OC)N(C)C(=O)[C@@H](NC(=O)[C@H](C(C)C)N(C)C)C(C)C [Compound I-9, (S)-2-((S)-2-(dimethylamino)-3-methylbutaneamido)-N-((3R,4S,5S)-3-methoxy-1-((R)-2-((1R,2R)-1-methoxy-2-methyl-3-oxo-3-(phenethylamino)propyl)-4-oxopyrrolidin-1-yl)-5-methyl-1-oxoheptan-4-yl)-N,3-dimethylbutanamide] has an IC50 ([3]; Homo sapiens, SW-620, 96 h) of 27.7 nM, an IC50 ([4]; Homo sapiens, NCI-H460, 96 h) of 10.9 nM and an IC50 ([1]; BT-474, 96 h) of 5.23 nM. It also gave an IC50 ([5]; Homo sapiens, MCF7, 96 h) of 27 nM.
Compound CC[C@H](C)[C@@H]([C@@H](CC(=O)N1C[C@@H](OC)C[C@H]1[C@H](OC)[C@@H](C)C(=O)NCCc1ccccc1)OC)N(C)C(=O)[C@@H](NC(=O)[C@@H](NC)C(C)C)C(C)C [Compound I-33, (2S)—N-((3R,4S)-3-methoxy-1-((2S,45)-4-methoxy-2-((1R,2R)-1-methoxy-2-methyl-3-oxo-3-(phenethylamino)propyl)pyrrolidin-1-yl)-5-methyl-1-oxoheptan-4-yl)-N,3-dimethyl-2-((S)-3-methyl-2-(methylamino)butaneamido)butanamide] has an IC50 ([3]; Homo sapiens, SW-620, 96 h) of 5.49 nM, an IC50 ([4]; Homo sapiens, NCI-H460, 96 h) of 9.4 nM and an IC50 ([1]; BT-474, 96 h) of 0.68 nM. For the same compound, the IC50 ([6]; Homo sapiens, HT-29, 96 h) was 2.82 nM, the IC50 ([5]; Homo sapiens, MCF7, 96 h) was 1.82 nM and the IC50 ([7]; Homo sapiens, MDA-MB-231, 96 h) was 2.23 nM.
Work on CC[C@H](C)[C@@H]([C@@H](CC(=O)N1C[C@H](OC)C[C@H]1[C@H](OC)[C@@H](C)C(=O)NCC(=O)c1ccccc1)OC)N(C)C(=O)[C@@H](NC(=O)[C@@H](NC)C(C)C)C(C)C [Compound I-34] yielded an IC50 ([4]; Homo sapiens, NCI-H460, 96 h) of 10.9 nM and an IC50 ([1]; BT-474, 96 h) of 9.71 nM.
Compound CC[C@H](C)[C@@H]([C@@H](CC(=O)N1C[C@H](OC)C[C@H]1[C@H](OC)[C@@H](C)C(=O)NCC(O)c1ccccc1)OC)N(C)C(=O)[C@@H](NC(=O)[C@@H](NC)C(C)C)C(C)C (stereo partly drawn) [Compound I-35, (2S)—N-((3R,4S)-1-((2S,4R)-2-((1R,2R)-3-(2-(2-hydroxy-2-phenylethyl)amino)-1-methoxy-2-methyl-3-oxopropyl)-4-methoxypyrrolidin-1-yl)-3-methoxy-5-methyl-1-oxoheptan-4-yl)-N,3-dimethyl-2-((S)-3-methyl-2-(methylamino)butaneamido)butanamide] has an IC50 ([3]; Homo sapiens, SW-620, 96 h) of 2.1 nM, an IC50 ([4]; Homo sapiens, NCI-H460, 96 h) of 1.5 nM and an IC50 ([1]; BT-474, 96 h) of 0.23 nM. It also gave an IC50 ([6]; Homo sapiens, HT-29, 96 h) of 4.2 nM.
Compound CC[C@H](C)[C@@H]([C@@H](CC(=O)N1C[C@@H](O)C[C@H]1[C@H](OC)[C@@H](C)C(=O)N[C@@H](C)C(=O)c1ccc(F)cc1)OC)N(C)C(=O)[C@@H](NC(=O)[C@@H](NC)C(C)C)C(C)C [Compound I-43, (2S)—N-((3R,4S)-1-((2S,4S)-2-((1R,2R)-3-(((S)-1-(4-fluorophenyl)-1-oxopropan-2-yl)amino)-1-methoxy-2-methyl-3-oxopropyl)-4-hydroxypyrrolidin-1-yl)-3-methoxy-5-methyl-1-oxoheptan-4-yl)-N,3-dimethyl-2-((S)-3-methyl-2-(methylamino)butaneamido)butanamide] has an IC50 ([1]; BT-474, 96 h) of 6.43 nM.
In the case of CC[C@H](C)[C@@H]([C@@H](CC(=O)N1C[C@@H](N)C[C@H]1[C@H](OC)[C@@H](C)C(=O)NCCc1c(F)cccc1F)OC)N(C)C(=O)[C@@H](NC(=O)[C@H](C(C)C)N(C)C)C(C)C [Compound I-44, (2S)—N-((3R,4S)-1-((2S,4S)-4-amino-2-((1R,2R)-3-((2,6-difluorophenethyl)amino)-1-methoxy-2-methyl-3-oxopropyl)pyrrolidin-1-yl)-3-methoxy-5-methyl-1-oxoheptan-4-yl)-2-((S)-2-(dimethylamino)-3-methylbutaneamido)-N,3-dimethylbutanamide], the IC50 ([1]; BT-474, 96 h) is reported as 0.17 nM.
Compound CC[C@H](C)[C@@H]([C@@H](CC(=O)N1C[C@@H](NC)C[C@H]1[C@H](OC)[C@@H](C)C(=O)NCCc1c(F)cccc1F)OC)N(C)C(=O)[C@@H](NC(=O)[C@H](C(C)C)N(C)C)C(C)C [Compound I-45, (2S)—N-((3R,4S)-1-((2S,4S)-2-((1R,2R)-3-((2,6-difluorophenethyl)amino)-1-methoxy-2-methyl-3-oxopropyl)-4-(methylamino)pyrrolidin-1-yl)-3-methoxy-5-methyl-1-oxoheptan-4-yl)-2-((S)-2-(dimethylamino)-3-methylbutaneamido)-N,3-dimethylbutanamide] has an IC50 ([1]; BT-474, 96 h) of 0.34 nM.
For COc1cccc2c1C(=O)c1c(O)c3c(c(O)c1C2=O)C[C@@](O)(C(=O)CO)C[C@@H]3O[C@H]1C[C@H](N)[C@H](O)[C@H](C)O1 [Doxorubcin, reference compound], the IC50 ([3]; SW-620 cells, 4 day incubation, WST-8) was 290 nM, the IC50 ([4]; NCI-H460 cells, 4 day incubation, WST-8) was 150 nM and the IC50 ([6]; HT-29 cells, 4 day incubation, WST-8) was 1.81 nM. The IC50 ([5]; MCF-7 cells, 4 day incubation, WST-8) was 460 nM and the IC50 ([7]; MDA-MB-231 cells, 4 day incubation, WST-8) was 850 nM.
CC(=O)O[C@H]1C(=O)[C@@]2(C)[C@H]([C@H](OC(=O)c3ccccc3)[C@]3(O)C[C@H](OC(=O)[C@H](O)[C@@H](NC(=O)c4ccccc4)c4ccccc4)C(C)=C1C3(C)C)[C@]1(OC(C)=O)CO[C@@H]1C[C@@H]2O [Paclitaxel, reference compound] showed an IC50 ([3]; Homo sapiens, 96 h, SW-620 cells, 4 day incubation, WST-8) of 26.8 nM, an IC50 ([4]; Homo sapiens, 96 h, NCI-H460 cells, 4 day incubation, WST-8) of 26.8 nM and an IC50 ([1]; 96 h, BT-474 cells, 4 day incubation, WST-8) of 14.4 nM. It also gave an IC50 ([2]; 96 h, A-431 cells, 4 day incubation, WST-8, read-out: IC50 (nM) A-431) of 442 nM, an IC50 ([6]; Homo sapiens, 96 h, HT-29 cells, 4 day incubation, WST-8) of 19.5 nM and an IC50 ([5]; Homo sapiens, MCF7, 96 h, MCF-7 cells, 4 day incubation, WST-8) of 27.1 nM. The IC50 ([7]; Homo sapiens, 96 h, MDA-MB-231 cells, 4 day incubation, WST-8) was 90 nM.
